From PubChem BioAssay AID248 (DTP/NCI, 2004)
Values joined by “and” are separate entries in the source; they are usually repeats but may differ in a detail not shown here. Identical values can stand only once. Inconclusive results and toxic doses are left out. Cut-off read from the data, not from the text of the source: active = T/C of 150% or more; inactive = T/C below 125%.

Test system: L1210 leukemia ip in BDF1 mice, survival T/C
Assay: NCI In Vivo Anticancer Drug Screen. Data for tumor model L1210 Leukemia (intraperitoneal) in B6D2F1 (BDF1) mice
Details: endpoint: mean survival time, higher = longer survival
Procedure, shortened: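 Tumor was transplanted into mice, which were then dosed with test compound or vehicle alone. Survival was recorded for each group, and the treated figure was expressed relative to the control figure.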

[1] = dose: 100.0 mg/kg/injection, schedule: Q04DX003 (ip), vehicle: saline
[2] = dose: 200.0 mg/kg/injection, schedule: Q04DX003 (ip), vehicle: saline
[3] = dose: 400.0 mg/kg/injection, schedule: Q04DX003 (ip), vehicle: saline

Measured: T/C

NC(=S)N/N=C/c1ccc(O)c(C(=O)O)c1
inactive: dose: 15.0 mg/kg/injection, schedule: Q01DX Z (ip), vehicle: methylcellulose (MC) 97 % of control | dose: 30.0 mg/kg/injection, schedule: Q01DX Z (ip), vehicle: methylcellulose (MC) 95 % of control | dose: 60.0 mg/kg/injection, schedule: Q01DX Z (ip), vehicle: methylcellulose (MC) 95 % of control | dose: 120.0 mg/kg/injection, schedule: Q01DX Z (ip), vehicle: methylcellulose (MC) 97 % of control | dose: 250.0 mg/kg/injection, schedule: Q01DX Z (ip), vehicle: methylcellulose (MC) 91 % of control | dose: 375.0 mg/kg/injection, schedule: Q01DX Z (ip), vehicle: methylcellulose (MC) 89 % of control

O=C1CCCCCCCCCOC(=O)CCCCCCCCCO1
inactive: dose: 100.0 mg/kg/injection, schedule: Q01DX001 (ip), vehicle: Klucel (hydroxypropylcellulose) (HPC) 94 % of control | dose: 200.0 mg/kg/injection, schedule: Q01DX001 (ip), vehicle: Klucel (hydroxypropylcellulose) (HPC) 94 % of control | dose: 400.0 mg/kg/injection, schedule: Q01DX001 (ip), vehicle: Klucel (hydroxypropylcellulose) (HPC) 91 % of control

Cc1cccc(CN=C(N)CSS(=O)(=O)O)n1
inactive: dose: 25.0 mg/kg/injection, schedule: Q01DX009 (ip), vehicle: Klucel (hydroxypropylcellulose) (HPC) 104 % of control | dose: 25.0 mg/kg/injection, schedule: Q04DX002 (ip), vehicle: Klucel (hydroxypropylcellulose) (HPC) 92 % of control | dose: 50.0 mg/kg/injection, schedule: Q01DX009 (ip), vehicle: Klucel (hydroxypropylcellulose) (HPC) 96 % of control | dose: 50.0 mg/kg/injection, schedule: Q04DX002 (ip), vehicle: Klucel (hydroxypropylcellulose) (HPC) 103 % of control | dose: 100.0 mg/kg/injection, schedule: Q04DX002 (ip), vehicle: Klucel (hydroxypropylcellulose) (HPC) 101 % of control and 88 % of control

CN(C)c1ccc(C=O)c([N+](=O)[O-])c1
inactive: dose: 100.0 mg/kg/injection, schedule: Q01DX009 (ip), vehicle: Klucel (hydroxypropylcellulose) (HPC) 97 % of control | dose: 200.0 mg/kg/injection, schedule: Q01DX009 (ip), vehicle: Klucel (hydroxypropylcellulose) (HPC) 101 % of control | dose: 400.0 mg/kg/injection, schedule: Q01DX009 (ip), vehicle: Klucel (hydroxypropylcellulose) (HPC) 105 % of control

COc1cc2ccc(CC(N)=O)cc2cc1OC
inactive: [1] 100 % of control | [2] 97 % of control | [3] 98 % of control

CC(=O)/C=N/NC(=O)C(O)C(O)C(O)C(O)CO (stereo not drawn)
inactive: [1] 102 % of control | [2] 94 % of control | [3] 91 % of control
